Source: ChEMBL document CHEMBL5154690, “Discovery of a tricyclic farnesoid X receptor agonist HEC96719, a clinical candidate for treatment of non-alcoholic steatohepatitis” (Eur J Med Chem, 2022)
The source made the active and inactive calls. The calls are words filed in the database; no cut-off is given here.

Key:
[1] = Half-life in male C57BL/6 mouse at 2 mg/kg, iv measured by LC-MS/MS analysis; type: ADME, organism-based; conditions: in vivo
[2] = Drug recovery in plasma of male Sprague-Dawley rat at 4.5 mg/kg, po administered as C14-lableled compound and assessed as radioactivity and measured at 0.25 hrs; type: ADME, organism-based; conditions: in vivo
[3] = system: Mus musculus; experiment: Anti-NASH activity against high fat (HF) diet-induced nonalcoholic steatohepatitis in leptin-deficient ob/ob mouse model assessed as reduction in NASH activity score (NAS) at 3 mg/kg, po administered once daily from week 5 to 10; type: functional, organism-based
[4] = system: Mus musculus; experiment: Anti-NASH activity against high fat (HF) diet-induced nonalcoholic steatohepatitis in leptin-deficient ob/ob mouse model assessed as reduction in serum ALT level at 3 mg/kg, po administered once daily from week 5 to 10; type: functional, organism-based
[5] = Drug recovery in lung of male Sprague-Dawley rat at 4.5 mg/kg, po administered as C14-lableled compound and assessed as radioactivity and measured at 24 hrs; type: ADME, organism-based; conditions: in vivo, BLD = below limit of detection
[6] = target: T1, Bile acid receptor (Rattus norvegicus) (UniProt Q62735); experiment: In vivo activation of FXR in male Sprague-Dawley rat assessed as fold increase in ileum FGF15 level at 5 mg/kg, po administered as single dose measured at 1 hr by RT-qPCR assay; type: functional, organism-based
T1 sequence (whole entry): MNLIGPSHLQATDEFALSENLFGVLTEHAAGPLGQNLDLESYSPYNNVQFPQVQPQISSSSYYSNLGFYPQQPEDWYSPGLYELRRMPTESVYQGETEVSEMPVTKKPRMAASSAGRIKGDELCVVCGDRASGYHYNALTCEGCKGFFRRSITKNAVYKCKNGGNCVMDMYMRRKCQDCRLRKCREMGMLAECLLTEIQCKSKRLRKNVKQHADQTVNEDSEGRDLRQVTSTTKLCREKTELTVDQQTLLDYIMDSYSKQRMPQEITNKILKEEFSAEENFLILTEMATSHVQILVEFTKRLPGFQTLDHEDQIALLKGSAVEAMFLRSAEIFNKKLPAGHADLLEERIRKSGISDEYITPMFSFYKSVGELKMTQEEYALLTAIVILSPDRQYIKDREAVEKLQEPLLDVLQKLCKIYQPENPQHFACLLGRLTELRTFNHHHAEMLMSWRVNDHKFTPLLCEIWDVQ

[7] = Half-life in male Beagle dog at 1 mg/kg, iv measured by LC-MS/MS analysis; type: ADME, organism-based, Canis lupus familiaris; conditions: in vivo
[8] = Drug metabolism in urine of Sprague-Dawley rat assessed as production of toxic metabolites at 4.5 mg/kg, po administered as C14-lableled compound with single dose; type: ADME, organism-based; conditions: in vivo
[9] = Oral bioavailability in male C57BL/6 mouse at 5 mg/kg measured by LC-MS/MS analysis; type: ADME, organism-based; conditions: in vivo
[10] = Drug metabolism in plasma of Sprague-Dawley rat assessed as production of toxic metabolites at 4.5 mg/kg, po administered as C14-lableled compound with single dose; type: ADME, organism-based; conditions: in vivo
[11] = Ratio of drug level in pancreas to plasma in male Sprague-Dawley rat at 4.5 mg/kg, po administered as C14-lableled compound and measured at 0.25 to 6 hrs; type: ADME, organism-based; conditions: other tissue, time 0.25-6 hrs
[12] = Drug metabolism in feces of Sprague-Dawley rat assessed as production of toxic metabolites at 4.5 mg/kg, po administered as C14-lableled compound with single dose; type: ADME, organism-based; conditions: in vivo
[13] = Drug recovery in lung of male Sprague-Dawley rat at 4.5 mg/kg, po administered as C14-lableled compound and assessed as radioactivity and measured at 1 hr; type: ADME, organism-based; conditions: in vivo
[14] = system: Mus musculus; experiment: Anti-NASH activity in western style diet-induced nonalcoholic steatohepatitis model of male C57BL/6 mouse assessed as reduction in liver fibrosis at 1 mg/kg, po administered once daily from week 32 to 44; type: functional, organism-based
[15] = Drug recovery in skin of male Sprague-Dawley rat at 4.5 mg/kg, po administered as C14-lableled compound and assessed as radioactivity and measured at 1 hr; type: ADME, organism-based, Skin of body; conditions: in vivo
[16] = Drug recovery in pancreas of male Sprague-Dawley rat at 4.5 mg/kg, po administered as C14-lableled compound and assessed as radioactivity and measured at 6 hrs; type: ADME, organism-based; conditions: in vivo, BLD = below limit of detection
[17] = Drug recovery in brain of male Sprague-Dawley rat at 4.5 mg/kg, po administered as C14-lableled compound and assessed as radioactivity and measured at 24 hrs; type: ADME, organism-based; conditions: in vivo, BLD = below limit of detection
[18] = Drug recovery in ileum of male Sprague-Dawley rat at 4.5 mg/kg, po administered as C14-lableled compound and assessed as radioactivity and measured at 24 hrs; type: ADME, organism-based; conditions: in vivo
[19] = system: Mus musculus; experiment: Antifibrotic activity in C57BL/6 mouse model of CCI4-induced liver fibrosis assessed as decrease in serum ALT level at 1 mg/kg, po administered once daily for 4 weeks; type: functional, organism-based
[20] = system: Mus musculus; experiment: Anti-NASH activity in western style diet-induced nonalcoholic steatohepatitis model of male C57BL/6 mouse assessed as reduction in serum ALT level at 1 mg/kg, po administered once daily from week 32 to 44; type: functional, organism-based
[21] = Drug recovery in spleen of male Sprague-Dawley rat at 4.5 mg/kg, po administered as C14-lableled compound and assessed as radioactivity and measured at 0.25 hrs; type: ADME, organism-based; conditions: in vivo
[22] = target: T2, G-protein coupled bile acid receptor 1 (Homo sapiens) (UniProt Q8TDU6); experiment: Agonist activity in human GPBAR1 assessed as increase in intracellular cAMP level relative to control; type: functional, cell-based
T2 sequence (whole entry): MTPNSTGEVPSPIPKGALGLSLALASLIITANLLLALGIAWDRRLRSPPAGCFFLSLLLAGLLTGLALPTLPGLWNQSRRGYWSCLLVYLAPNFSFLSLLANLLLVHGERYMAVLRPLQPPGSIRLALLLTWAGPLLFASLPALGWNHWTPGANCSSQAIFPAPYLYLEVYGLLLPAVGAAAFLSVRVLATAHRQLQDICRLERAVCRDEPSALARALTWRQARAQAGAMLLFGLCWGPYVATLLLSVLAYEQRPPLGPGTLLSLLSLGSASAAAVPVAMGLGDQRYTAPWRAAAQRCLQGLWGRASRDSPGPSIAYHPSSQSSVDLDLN

[23] = system: Mus musculus; experiment: Anti-NASH activity against high fat (HF) diet-induced nonalcoholic steatohepatitis in leptin-deficient ob/ob mouse model assessed as reduction in serum TG level at 0.1 to 1 mg/kg, po administered once daily from week 5 to 10; type: functional, organism-based; conditions: dose 0.1-1 mg/kg
[24] = system: Mus musculus; experiment: Antifibrotic activity in C57BL/6 mouse model of CCI4-induced liver fibrosis assessed as decrease in serum TBIL level at 0.1 to 1 mg/kg, po administered once daily for 4 weeks; type: functional, organism-based; conditions: dose 0.1-1 mg/kg
[25] = target: T1, Bile acid receptor (Rattus norvegicus); experiment: In vivo activation of FXR in male Sprague-Dawley rat assessed as fold increase in FGF15 level at 5 mg/kg, po administered once daily for 14 days measured at 6 hrs by ELISA; type: functional, organism-based; conditions: time 14.0 day
[26] = target: Voltage-gated inwardly rectifying potassium channel KCNH2 (Homo sapiens, UniProt Q12809); experiment: Inhibition of hERG; type: toxicity
[27] = Drug recovery in stomach of male Sprague-Dawley rat at 4.5 mg/kg, po administered as C14-lableled compound and assessed as radioactivity and measured at 6 hrs; type: ADME, organism-based; conditions: in vivo

Sequence of Voltage-gated inwardly rectifying potassium channel KCNH2 (Q12809 whole entry): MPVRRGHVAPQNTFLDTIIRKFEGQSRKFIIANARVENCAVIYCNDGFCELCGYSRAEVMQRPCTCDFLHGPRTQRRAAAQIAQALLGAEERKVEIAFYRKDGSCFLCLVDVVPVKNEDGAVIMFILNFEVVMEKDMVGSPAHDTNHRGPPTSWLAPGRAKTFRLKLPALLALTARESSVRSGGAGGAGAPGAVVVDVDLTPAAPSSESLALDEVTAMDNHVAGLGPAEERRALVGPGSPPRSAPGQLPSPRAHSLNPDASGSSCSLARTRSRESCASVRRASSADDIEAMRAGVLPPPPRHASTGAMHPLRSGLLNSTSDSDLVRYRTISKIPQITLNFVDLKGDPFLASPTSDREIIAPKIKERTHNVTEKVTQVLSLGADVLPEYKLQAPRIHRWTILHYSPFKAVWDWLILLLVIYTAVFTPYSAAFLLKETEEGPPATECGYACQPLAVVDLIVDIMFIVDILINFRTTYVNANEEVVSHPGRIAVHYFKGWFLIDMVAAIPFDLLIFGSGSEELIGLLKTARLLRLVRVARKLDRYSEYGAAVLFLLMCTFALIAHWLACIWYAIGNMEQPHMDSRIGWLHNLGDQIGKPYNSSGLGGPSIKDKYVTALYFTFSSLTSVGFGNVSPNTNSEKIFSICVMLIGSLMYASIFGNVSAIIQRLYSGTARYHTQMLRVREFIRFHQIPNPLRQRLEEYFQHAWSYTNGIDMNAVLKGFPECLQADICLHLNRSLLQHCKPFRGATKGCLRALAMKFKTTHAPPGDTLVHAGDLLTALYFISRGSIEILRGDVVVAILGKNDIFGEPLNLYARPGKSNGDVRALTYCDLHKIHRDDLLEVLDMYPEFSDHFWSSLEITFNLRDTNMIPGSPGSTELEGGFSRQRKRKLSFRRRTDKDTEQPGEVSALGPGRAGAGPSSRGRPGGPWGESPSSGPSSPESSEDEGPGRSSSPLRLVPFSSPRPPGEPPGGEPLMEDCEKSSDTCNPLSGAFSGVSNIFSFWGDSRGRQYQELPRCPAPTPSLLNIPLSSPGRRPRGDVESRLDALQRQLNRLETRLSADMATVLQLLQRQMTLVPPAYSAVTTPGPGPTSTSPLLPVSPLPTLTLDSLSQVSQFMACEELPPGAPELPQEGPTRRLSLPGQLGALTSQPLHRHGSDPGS

## O=C(O)c1ccc2c(c1)Oc1ccc(OCc3c(-c4c(Cl)cccc4Cl)noc3C3CC3)nc1C1(CC1)C2
[1]
  half-life: 0.47 h
[2]
  Drug recovery: 229 ngequiv/g
[3]
  Activity: Active
[4]
  Activity: Active
[5]
  Drug recovery: Bld
[6]
  fold change (FC): 24
[7]
  half-life: 2.97 h
[8]
  Drug metabolism: Metabolite_Notdetected
[9]
  bioavailability: 82.5%
[10]
  Drug metabolism: Metabolite_Notdetected
[11]
  Ratio: 0.8
[12]
  Drug metabolism: Metabolite_Notdetected
[13]
  Drug recovery: 814 ngequiv/g
[14]
  Activity: Active
[15]
  Drug recovery: 117 ngequiv/g
[16]
  Drug recovery: Bld
[17]
  Drug recovery: Bld
[18]
  Drug recovery: 1542 ngequiv/g
[19]
  Activity: Active
[20]
  Activity: Active
[21]
  Drug recovery: 192 ngequiv/g
[22]
  Activity: 29%
[23]
  Activity: Active
[24]
  Activity: Active
[25]
  fold change (FC): 18
[26]
  IC50: > 5.24 µM
[27]
  Drug recovery: 188 ngequiv/g
